SMILES strings stand for the structures.

The values below come from publication PMC9498203, “Characterization and Preliminary Application of a Novel Lipoxygenase from Enterovibrio norvegicus” (Foods, 2022).

The experiment concerns the target T1, EnLOX (Enterovibrio norvegicus, UniProt A0A1I5T4S6).
T1 construct: gene SAMN03084138_03074; E. coli BL21(DE3); Ni-NTA purified
T1 sequence (A0A1I5T4S6 1-726): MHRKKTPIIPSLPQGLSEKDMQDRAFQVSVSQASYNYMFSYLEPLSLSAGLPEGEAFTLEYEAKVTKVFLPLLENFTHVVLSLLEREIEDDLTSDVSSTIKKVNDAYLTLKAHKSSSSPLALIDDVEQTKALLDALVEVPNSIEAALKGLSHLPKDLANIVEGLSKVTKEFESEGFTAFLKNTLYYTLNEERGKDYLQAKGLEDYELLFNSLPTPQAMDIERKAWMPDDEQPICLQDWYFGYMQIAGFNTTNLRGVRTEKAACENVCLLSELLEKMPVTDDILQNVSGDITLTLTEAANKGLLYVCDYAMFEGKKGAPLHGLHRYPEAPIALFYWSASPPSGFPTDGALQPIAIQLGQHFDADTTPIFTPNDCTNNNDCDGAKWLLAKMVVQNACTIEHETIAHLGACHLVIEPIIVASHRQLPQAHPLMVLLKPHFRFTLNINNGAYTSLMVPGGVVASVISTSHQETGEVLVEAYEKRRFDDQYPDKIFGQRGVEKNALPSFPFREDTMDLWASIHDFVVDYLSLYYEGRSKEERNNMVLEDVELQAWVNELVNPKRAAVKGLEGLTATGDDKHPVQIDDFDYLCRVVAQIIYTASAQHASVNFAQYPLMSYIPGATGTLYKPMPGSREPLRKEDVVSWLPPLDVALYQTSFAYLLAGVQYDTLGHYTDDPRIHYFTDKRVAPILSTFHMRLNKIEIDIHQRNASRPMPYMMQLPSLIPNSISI
Kind of experiment: absorbance at […] nm, Michaelis-Menten nonlinear fit. Conditions: 20 mmol L^−1 Tris-HCl, pH 8.0, 50 °C. Format: biochemical.

Consider `CC/C=C\C/C=C\C/C=C\CCCCCCCC(=O)O` [ALA, α-linolenic acid], for which the Km amounted to 2.32 µM. For `CCCCC/C=C\C/C=C\C/C=C\CCCCC(=O)O` [GLA, γ-linolenic acid], the Km was 8.79 µM.
